Like-named read-outs stand apart in the source and are kept apart here.
How the values were obtained:
HepG2 cells = assay: HepG2 cytotoxicity counter-screen; settings: cytotoxic activity against HepG2 cells
[1] = test system: P. falciparum male gametocytes; assay: P. falciparum Dual Gamete Formation Assay (PfDGFA), male readout (exflagellation); type: cell-based, Plasmodium falciparum NF54; settings: for Selectivity Ratio M: HepG2 Tox50 versus male IC50; for IC50: PfDGFA, 24 h incubation with gametocytes before induction, exflagellation readout, read-out: Male IC50; for HitlevelM: number of replicates with >50% inhibition in the male readout
Outline: (§1)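 First, day-14 P. falciparum NF54 gametocytes receive compound for 24 h at 37°C in 1% O2/3% CO2. Next, ookinete medium with Cy3 anti-Pfs25 triggers gametogenesis at 28°C and male exflagellation is imaged. Finally, after 24 h in the dark, Cy3-labelled females are imaged.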

[2] = test system: P. falciparum female gametocytes; assay: P. falciparum Dual Gamete Formation Assay (PfDGFA), female readout (Pfs25-positive female gametes); type: cell-based, Plasmodium falciparum NF54; settings: for Selectivity ratio F: HepG2 Tox50 versus female IC50; for IC50: PfDGFA, 24 h incubation with gametocytes before induction, female gamete readout, read-out: Female IC50; for HitlevelF: number of replicates with >50% inhibition in the female readout
Outline: as §1

[3] = 2µM, 24h preincubation with gametocytes, average of replicates
[4] = 2µM, 24h preincubation with gametocytes, replicate R1
[5] = 2µM, 24h preincubation with gametocytes, replicate R3
[6] = 2µM, 24h preincubation with gametocytes, replicate R4
[7] = PfDGFA at 2µM, 24h preincubation with gametocytes, average of replicates
[8] = PfDGFA at 2µM, 24h preincubation with gametocytes, replicate R1
[9] = PfDGFA at 2µM, 24h preincubation with gametocytes, replicate R3
[10] = PfDGFA at 2µM, 24h preincubation with gametocytes, replicate R4
[11] = Plasmodium falciparum, PfDGFA at 2µM, 24h preincubation with gametocytes, average of replicates, read-out: Average inhibition male (%)
[12] = Plasmodium falciparum, PfDGFA at 2µM, 24h preincubation with gametocytes, replicate R1, read-out: % inhibition male (individual replicates) R1
[13] = Plasmodium falciparum, PfDGFA at 2µM, 24h preincubation with gametocytes, replicate R2, read-out: % inhibition male (individual replicates) R2
[14] = Plasmodium falciparum, PfDGFA at 2µM, 24h preincubation with gametocytes, replicate R3, read-out: % inhibition male (individual replicates) R3
[15] = Plasmodium falciparum, PfDGFA at 2µM, 24h preincubation with gametocytes, replicate R4, read-out: % inhibition male (individual replicates) R4
[16] = Plasmodium falciparum, PfDGFA at 2µM, 24h preincubation with gametocytes, average of replicates, read-out: Average inhibition female (%)
[17] = Plasmodium falciparum, PfDGFA at 2µM, 24h preincubation with gametocytes, replicate R1, read-out: % inhibition female (individual replicates) R1
[18] = Plasmodium falciparum, PfDGFA at 2µM, 24h preincubation with gametocytes, replicate R2, read-out: % inhibition female (individual replicates) R2
[19] = Plasmodium falciparum, PfDGFA at 2µM, 24h preincubation with gametocytes, replicate R3, read-out: % inhibition female (individual replicates) R3
[20] = Plasmodium falciparum, PfDGFA at 2µM, 24h preincubation with gametocytes, replicate R4, read-out: % inhibition female (individual replicates) R4
[21] = 2µM, 24h preincubation with gametocytes prior to induction of gametogenesis, average of replicates
[22] = 2µM, 24h preincubation with gametocytes prior to induction of gametogenesis, replicate R1
[23] = 2µM, 24h preincubation with gametocytes prior to induction of gametogenesis, replicate R3
[24] = 2µM, 24h preincubation with gametocytes prior to induction of gametogenesis, replicate R4

| SMILES | Tox50 (HepG2 cells) | Average inhibition male (%) [1, 3] | % inhibition male (individual replicates) R1 [1, 4] | % inhibition male (individual replicates) R3 [1, 5] | % inhibition male (individual replicates) R4 [1, 6] | Selectivity Ratio M [1] | IC50 [1] | Average inhibition female (%) [2, 3] | % inhibition female (individual replicates) R1 [2, 4] | % inhibition female (individual replicates) R3 [2, 5] | % inhibition female (individual replicates) R4 [2, 6] | Selectivity ratio F [2] | IC50 [2] | HitlevelM ([1]; 2µM) | HitlevelF ([2]; 2µM) | other results |
| --- | --- | --- | --- | --- | --- | --- | --- | --- | --- | --- | --- | --- | --- | --- | --- | --- |
| CCOC(=O)c1cc2c(CCN3C(=O)c4ccccc4C3=O)cn(C)c2cc1-c1ccncc1 [TCMDC-138099] | 1.57 µM | 101.6% | 102.0% | 99.5% | 102.4% | 2.3 | 680 nM | 93.8% | 94.3% | 100.9% | 92.0% | 1 | 1560 nM |  |  |  |
| COc1cc2nc(NCc3cccc(CNC(=O)c4ccc(-c5ccc(C(C)=O)cc5)cc4)c3)nc(N)c2cc1OC.O=C(O)C(F)(F)F [TCMDC-138177] | 6.34 µM |  |  |  |  | 3.88 | 1630 nM |  |  |  |  | 3.13 | 2020 nM | 3 | 2 | Average inhibition male (%) [1, 7]: 65.2%; % inhibition male (individual replicates) R1 [1, 8]: 54.7%; % inhibition male (individual replicates) R3 [1, 9]: 22.4%; % inhibition male (individual replicates) R4 [1, 10]: 95.6%; Average inhibition female (%) [2, 7]: 43.1%; % inhibition female (individual replicates) R1 [2, 8]: 31.2%; % inhibition female (individual replicates) R3 [2, 9]: 17.8%; % inhibition female (individual replicates) R4 [2, 10]: 57.2% |
| COc1ccc2nc3cc(Cl)ccc3c(NCCCCNc3c4ccc(Cl)cc4nc4ccc(OC)cc34)c2c1 [TCMDC-138218] | 2.31 µM |  |  |  |  | 6.15 |  |  |  |  |  | 6.16 |  | 4 | 4 | inhibition at 2 µM [1, 11]: 73.2%; inhibition at 2 µM [1, 12]: 64.4%; inhibition at 2 µM [1, 13]: 64.9%; inhibition at 2 µM [1, 14]: 77.2%; inhibition at 2 µM [1, 15]: 86.3%; IC50 ([1]; Plasmodium falciparum): 380 nM; inhibition at 2 µM [2, 16]: 88.1%; inhibition at 2 µM [2, 17]: 84.2%; inhibition at 2 µM [2, 18]: 86.6%; inhibition at 2 µM [2, 19]: 91.5%; inhibition at 2 µM [2, 20]: 89.9%; IC50 ([2]; Plasmodium falciparum): 380 nM |
| COc1ccc(N2CCN(CCCCNCc3ccc(NC(=O)c4cc(Cl)cc(Cl)c4)cc3)CC2)c(OC)c1 [TCMDC-138226] | 5.4 µM |  |  |  |  | 3.29 | 1640 nM |  |  |  |  | 1.04 | 5220 nM | 4 | 0 | Average inhibition male (%) [1, 7]: 83.1%; % inhibition male (individual replicates) R1 [1, 8]: 85.0%; % inhibition male (individual replicates) R3 [1, 9]: 71.2%; % inhibition male (individual replicates) R4 [1, 10]: 96.9%; Average inhibition female (%) [2, 7]: 28.5%; % inhibition female (individual replicates) R1 [2, 8]: 20.8%; % inhibition female (individual replicates) R3 [2, 9]: 39.5%; % inhibition female (individual replicates) R4 [2, 10]: 12.9% |
| CN(C)CCNCc1ccc(-c2ccc3c(Nc4ccc(Cl)cc4F)ccnc3c2)o1 [TCMDC-138391] | 12.91 µM |  |  |  |  | 7.38 | 1750 nM |  |  |  |  | 2.31 | 5590 nM |  |  | Average inhibition male (%) [1, 21]: 55.2%; % inhibition male (individual replicates) R1 [1, 22]: 62.6%; % inhibition male (individual replicates) R3 [1, 23]: 53.9%; % inhibition male (individual replicates) R4 [1, 24]: 79.6%; HitlevelM ([1]; 2µM, 24h preincubation): 3; Average inhibition female (%) [2, 21]: 37.2%; % inhibition female (individual replicates) R1 [2, 22]: 39.6%; % inhibition female (individual replicates) R3 [2, 23]: 32.6%; % inhibition female (individual replicates) R4 [2, 24]: 31.7%; HitlevelF ([2]; 2µM, 24h preincubation): 0 |
| CN(C)CCN(C)Cc1ccc(-c2ccc3c(Nc4ccc(Oc5ccccc5)cc4)ccnc3c2)o1 [TCMDC-138400] | 3.45 µM | 97.6% | 97.3% | 97.8% | 99.6% | 3.65 | 940 nM | 65.3% | 57.3% | 63.8% | 69.5% | 0.72 | 4780 nM |  |  |  |
| CC(C)S(=O)(=O)N1CCN(Cc2ccc3c(c2)nc(NC(=O)c2ccsc2)n3C[C@H](O)c2ccccc2)CC1 [TCMDC-138569] | 8.48 µM |  |  |  |  | 20.83 |  |  |  |  |  | 0.85 |  | 4 | 0 | inhibition at 2 µM [1, 11]: 67.3%; inhibition at 2 µM [1, 12]: 77.8%; inhibition at 2 µM [1, 13]: 73.7%; inhibition at 2 µM [1, 14]: 62.3%; inhibition at 2 µM [1, 15]: 55.6%; IC50 ([1]; Plasmodium falciparum): 410 nM; inhibition at 2 µM [2, 16]: 9.7%; inhibition at 2 µM [2, 17]: 10.7%; inhibition at 2 µM [2, 18]: -0.7%; inhibition at 2 µM [2, 19]: -17.5%; inhibition at 2 µM [2, 20]: 46.4%; IC50 ([2]; Plasmodium falciparum): > 10000 nM |
| CN1CCN(CCCNCc2ccc(Nc3nccc(Nc4ccc(Oc5ccccc5)cc4)n3)cc2)CC1 [TCMDC-138621] | 7.88 µM |  |  |  |  | 4.45 | 1770 nM |  |  |  |  | 1.14 | 6880 nM | 4 | 0 | Average inhibition male (%) [1, 7]: 76.4%; % inhibition male (individual replicates) R1 [1, 8]: 65.3%; % inhibition male (individual replicates) R3 [1, 9]: 52.8%; % inhibition male (individual replicates) R4 [1, 10]: 96.9%; Average inhibition female (%) [2, 7]: 16.4%; % inhibition female (individual replicates) R1 [2, 8]: 12.8%; % inhibition female (individual replicates) R3 [2, 9]: 8.2%; % inhibition female (individual replicates) R4 [2, 10]: 31.4% |
| Cl.O=C1Nc2ccc3ncccc3c2/C1=C/Nc1ccc(N2CCN(CCO)CC2)cc1 [TCMDC-138634] | 33.87 µM |  |  |  |  | 229.28 |  |  |  |  |  | 3.39 |  |  |  | inhibition at 2 µM ([1]; Plasmodium falciparum, 2µM, 24h preincubation with gametocytes, average of replicates, read-out: Average inhibition male (%)): 92.8%; inhibition at 2 µM ([1]; Plasmodium falciparum, 2µM, 24h preincubation with gametocytes, replicate R1, read-out: % inhibition male (individual replicates) R1): 89.8%; inhibition at 2 µM ([1]; Plasmodium falciparum, 2µM, 24h preincubation with gametocytes, replicate R2, read-out: % inhibition male (individual replicates) R2): 91.5%; inhibition at 2 µM ([1]; Plasmodium falciparum, 2µM, 24h preincubation with gametocytes, replicate R3, read-out: % inhibition male (individual replicates) R3): 89.7%; inhibition at 2 µM ([1]; Plasmodium falciparum, 2µM, 24h preincubation with gametocytes, replicate R4, read-out: % inhibition male (individual replicates) R4): 100%; IC50 ([1]; Plasmodium falciparum): 150 nM; inhibition at 2 µM ([2]; Plasmodium falciparum, 2µM, 24h preincubation with gametocytes, average of replicates, read-out: Average inhibition female (%)): -7.8%; inhibition at 2 µM ([2]; Plasmodium falciparum, 2µM, 24h preincubation with gametocytes, replicate R1, read-out: % inhibition female (individual replicates) R1): -5.3%; inhibition at 2 µM ([2]; Plasmodium falciparum, 2µM, 24h preincubation with gametocytes, replicate R2, read-out: % inhibition female (individual replicates) R2): -7.3%; inhibition at 2 µM ([2]; Plasmodium falciparum, 2µM, 24h preincubation with gametocytes, replicate R3, read-out: % inhibition female (individual replicates) R3): -18.8%; inhibition at 2 µM ([2]; Plasmodium falciparum, 2µM, 24h preincubation with gametocytes, replicate R4, read-out: % inhibition female (individual replicates) R4): 0.25%; IC50 ([2]; Plasmodium falciparum): > 10000 nM |
| C=CC(C)C1OC(=O)c2cc(OC)cc(OC)c21 (centres unmarked) [TCMDC-138676] | 1.57 µM | 100.2% | 101.1% | 101.1% | 99.6% | 2.76 | 570 nM | 94.9% | 92.0% | 102.0% | 91.3% | 1.37 | 1150 nM |  |  |  |
| C=CCC1OC(=O)c2cc(OC)cc(OC)c21 (centres unmarked) [TCMDC-138677] | 2.57 µM | 100.4% | 99.9% | 100.4% | 100.2% | 2.21 | 1160 nM | 52.4% | 41.8% | 47.5% | 59.2% | 1.43 | 1800 nM |  |  |  |
